Laboratory results taken from PMC10066365, “Nemacol is a small molecule inhibitor of C. elegans vesicular acetylcholine transporter with anthelmintic potential” (Nature Communications, 2023).
Values joined by “and” are separate entries in the source; they are usually repeats but may differ in a detail not shown here. Equal entries are not always repeated.

Legend:
C. elegans = C. elegans motor phenotype scoring on solid media (Punc/jerky-unc, coiled, paralyzed), wild-type young adults; type: in vivo, Caenorhabditis elegans; conditions: for AVERAGES Fraction Coiled / AVERAGES Fraction Paralyzed / AVERAGES Fraction Punc: average of 3 replicates; for C1 (number of animals) / C2 (number of animals) / Fraction Coiled / Fraction Paralyzed / Fraction Punc / NP (number of animals) / P (number of animals) / Punc (number of animals) / Next Day Animals alive (moving fine): single replicate
[1] = tested on: Dirofilaria immitis L3/L4; assay: Dirofilaria immitis L3/L4 motility assay (DiroImager, 72 h); conditions: Dirofilaria immitis L4
[2] = 60uM, one hour, young adults, 20 animals per trial, single replicate counts

SMILES: O=[N+]([O-])c1ccc(N2CCN(CC3CC=CCC3)CC2)cc1 (centres unmarked) [Nemacol-4]
- AVERAGES Fraction Coiled (C. elegans; 30 μM, 120 min): 0.0741
- AVERAGES Fraction Paralyzed (C. elegans; 30 μM, 120 min): 0.0185
- AVERAGES Fraction Punc (C. elegans; 30 μM, 120 min): 0.5
- C1 (number of animals) (C. elegans; 30 μM, 120 min): 2 and 1
- C2 (number of animals) (C. elegans; 30 μM, 120 min): 0
- Fraction Coiled (C. elegans; 30 μM, 120 min): 0.111 and 0.0556
- Fraction Paralyzed (C. elegans; 30 μM, 120 min): 0.0556 and 0.0
- Fraction Punc (C. elegans; 30 μM, 120 min): 0.556 and 0.5
- NP (number of animals) (C. elegans; 30 μM, 120 min): 5 and 8
- P (number of animals) (C. elegans; 30 μM, 120 min): 1 and 0
- Punc (number of animals) (C. elegans; 30 μM, 120 min): 10 and 9
- AVERAGES Fraction Coiled (C. elegans; 30 μM, 240 min): 0.0
- AVERAGES Fraction Paralyzed (C. elegans; 30 μM, 240 min): 0.0
- AVERAGES Fraction Punc (C. elegans; 30 μM, 240 min): 0.333
- C1 (number of animals) (C. elegans; 30 μM, 240 min): 0
- C2 (number of animals) (C. elegans; 30 μM, 240 min): 0
- Fraction Coiled (C. elegans; 30 μM, 240 min): 0.0
- Fraction Paralyzed (C. elegans; 30 μM, 240 min): 0.0
- Fraction Punc (C. elegans; 30 μM, 240 min): 0.333 and 0.222 and 0.444
- NP (number of animals) (C. elegans; 30 μM, 240 min): 12 and 14 and 10
- P (number of animals) (C. elegans; 30 μM, 240 min): 0
- Punc (number of animals) (C. elegans; 30 μM, 240 min): 6 and 4 and 8
- AVERAGES Fraction Coiled (C. elegans; 30 μM, 360 min): 0.0
- AVERAGES Fraction Paralyzed (C. elegans; 30 μM, 360 min): 0.0
- AVERAGES Fraction Punc (C. elegans; 30 μM, 360 min): 0.111
- C1 (number of animals) (C. elegans; 30 μM, 360 min): 0
- C2 (number of animals) (C. elegans; 30 μM, 360 min): 0
- Fraction Coiled (C. elegans; 30 μM, 360 min): 0.0
- Fraction Paralyzed (C. elegans; 30 μM, 360 min): 0.0
- Fraction Punc (C. elegans; 30 μM, 360 min): 0.0556 and 0.278 and 0.0
- NP (number of animals) (C. elegans; 30 μM, 360 min): 17 and 13 and 18
- P (number of animals) (C. elegans; 30 μM, 360 min): 0
- Punc (number of animals) (C. elegans; 30 μM, 360 min): 1 and 5 and 0
- Next Day Animals alive (moving fine) (C. elegans; 30 μM): alive, recovered
- AVERAGES Fraction Coiled (C. elegans; 60 μM, 30 min): 0.111
- AVERAGES Fraction Paralyzed (C. elegans; 60 μM, 30 min): 0.0
- AVERAGES Fraction Punc (C. elegans; 60 μM, 30 min): 0.8
- C1 (number of animals) (C. elegans; 60 μM, 30 min): 1 and 0
- C2 (number of animals) (C. elegans; 60 μM, 30 min): 2 and 1
- Fraction Coiled (C. elegans; 60 μM, 30 min): 0.167 and 0.0556 and 0.111
- Fraction Paralyzed (C. elegans; 60 μM, 30 min): 0.0
- Fraction Punc (C. elegans; 60 μM, 30 min): 0.7 and 0.9
- NP (number of animals) (C. elegans; 60 μM, 30 min): 2 and 4 and 0
- P (number of animals) (C. elegans; 60 μM, 30 min): 0
- Punc (number of animals) (C. elegans; 60 μM, 30 min): 13 and 16
- AVERAGES Fraction Coiled (C. elegans; 60 μM, 60 min): 0.149
- AVERAGES Fraction Paralyzed (C. elegans; 60 μM, 60 min): 0.037
- AVERAGES Fraction Punc (C. elegans; 60 μM, 60 min): 0.7
- C1 (number of animals) (C. elegans; 60 μM, 60 min): 2 and 0 and 1
- C2 (number of animals) (C. elegans; 60 μM, 60 min): 2 and 1
- Fraction Coiled (C. elegans; 60 μM, 60 min): 0.222 and 0.0588 and 0.167
- Fraction Paralyzed (C. elegans; 60 μM, 60 min): 0.111 and 0.0
- Fraction Punc (C. elegans; 60 μM, 60 min): 0.667 and 0.7 and 0.8
- NP (number of animals) (C. elegans; 60 μM, 60 min): 0 and 4
- P (number of animals) (C. elegans; 60 μM, 60 min): 2 and 0
- Punc (number of animals) (C. elegans; 60 μM, 60 min): 12 and 15
- AVERAGES Fraction Coiled (C. elegans; 60 μM, 90 min): 0.148
- AVERAGES Fraction Paralyzed (C. elegans; 60 μM, 90 min): 0.111
- AVERAGES Fraction Punc (C. elegans; 60 μM, 90 min): 0.741
- C1 (number of animals) (C. elegans; 60 μM, 90 min): 3 and 1 and 0
- C2 (number of animals) (C. elegans; 60 μM, 90 min): 1 and 2
- Fraction Coiled (C. elegans; 60 μM, 90 min): 0.222 and 0.167 and 0.0556
- Fraction Paralyzed (C. elegans; 60 μM, 90 min): 0.222 and 0.0556
- Fraction Punc (C. elegans; 60 μM, 90 min): 0.556 and 0.8 and 0.9
- NP (number of animals) (C. elegans; 60 μM, 90 min): 0
- P (number of animals) (C. elegans; 60 μM, 90 min): 4 and 1
- Punc (number of animals) (C. elegans; 60 μM, 90 min): 10 and 14 and 16
- AVERAGES Fraction Coiled (C. elegans; 60 μM, 120 min): 0.111
- AVERAGES Fraction Paralyzed (C. elegans; 60 μM, 120 min): 0.037
- AVERAGES Fraction Punc (C. elegans; 60 μM, 120 min): 0.8
- C1 (number of animals) (C. elegans; 60 μM, 120 min): 1 and 0
- C2 (number of animals) (C. elegans; 60 μM, 120 min): 1 and 2
- Fraction Coiled (C. elegans; 60 μM, 120 min): 0.111
- Fraction Paralyzed (C. elegans; 60 μM, 120 min): 0.0556 and 0.0
- Fraction Punc (C. elegans; 60 μM, 120 min): 0.7 and 0.9 and 0.8
- NP (number of animals) (C. elegans; 60 μM, 120 min): 2 and 0
- P (number of animals) (C. elegans; 60 μM, 120 min): 1 and 0
- Punc (number of animals) (C. elegans; 60 μM, 120 min): 13 and 16 and 15
- AVERAGES Fraction Coiled (C. elegans; 60 μM, 240 min): 0.0
- AVERAGES Fraction Paralyzed (C. elegans; 60 μM, 240 min): 0.037
- AVERAGES Fraction Punc (C. elegans; 60 μM, 240 min): 0.5
- C1 (number of animals) (C. elegans; 60 μM, 240 min): 0
- C2 (number of animals) (C. elegans; 60 μM, 240 min): 0
- Fraction Coiled (C. elegans; 60 μM, 240 min): 0.0
- Fraction Paralyzed (C. elegans; 60 μM, 240 min): 0.0 and 0.111
- Fraction Punc (C. elegans; 60 μM, 240 min): 0.4 and 0.333 and 0.7
- NP (number of animals) (C. elegans; 60 μM, 240 min): 11 and 12 and 3
- P (number of animals) (C. elegans; 60 μM, 240 min): 0 and 2
- Punc (number of animals) (C. elegans; 60 μM, 240 min): 7 and 6 and 13
- AVERAGES Fraction Coiled (C. elegans; 60 μM, 360 min): 0.0
- AVERAGES Fraction Paralyzed (C. elegans; 60 μM, 360 min): 0.0
- AVERAGES Fraction Punc (C. elegans; 60 μM, 360 min): 0.37
- C1 (number of animals) (C. elegans; 60 μM, 360 min): 0
- C2 (number of animals) (C. elegans; 60 μM, 360 min): 0
- Fraction Coiled (C. elegans; 60 μM, 360 min): 0.0
- Fraction Paralyzed (C. elegans; 60 μM, 360 min): 0.0
- Fraction Punc (C. elegans; 60 μM, 360 min): 0.333 and 0.444
- NP (number of animals) (C. elegans; 60 μM, 360 min): 12 and 10
- P (number of animals) (C. elegans; 60 μM, 360 min): 0
- Punc (number of animals) (C. elegans; 60 μM, 360 min): 6 and 8
- Next Day Animals alive (moving fine) (C. elegans; 60 μM): alive, recovered
- any phene, mean % fraction of young adults exhibiting any phenotype (coiled, jerky-Unc or paralyzed) (C. elegans; 60uM, one hour, mean of three biological replicates): 94.1667%
- atypical locomotion (number of animals) (C. elegans; [2]): 9 and 8 and 13 and 10 and 2 and 3
- coiled (number of animals) (C. elegans; [2]): 8 and 7 and 3 and 1 and 4 and 5
- no phene (number of animals) (C. elegans; [2]): 0 and 3 and 4
- paralyzed (number of animals) (C. elegans; [2]): 3 and 5 and 1 and 14 and 12
- EC50 (C. elegans; Caenorhabditis elegans, 1 h, Fig. 1, dose-response at 60 min, wild-type young adults, +/- 95% CI, read-out: EC50): 15 ± 2.3 µM
- % effect (motility), DIROIM L4 ([1]; 2 µM): 5%
- % effect (motility), DIROIM L4 ([1]; 10 µM): 100%
- % effect (motility), DIROIM L4 ([1]; 50 µM): 100%
